43 compounds from patent US12559474B2, “Triazine derivatives having virus replication inhibitory activity and pharmaceutical composition comprising the same” (priority 2021, dated 2026) can be followed below.

The assay concerns the target SARS-CoV-2 3CL protease (Severe acute respiratory syndrome coronavirus 2, UniProt P0DTD1). In words: biochemical. To be noted: IC50.

SMILES strings stand for the structures. Values joined by “and” are separate entries in the source; they are usually repeats but may differ in a detail not shown here. Equal entries are not always repeated. Where only a bound is given, the exact number is not on record here.

On to `O=c1[nH]cccc1Cn1c(=O)nc(NC2CCc3[nH]ncc3C2)n(Cc2cc(F)c(F)c(F)c2)c1=O` (racemic) [Compound I-0208], for which the IC50 (as a rule, the concentration needed to halve the response being measured) is 230 nM and 100 to 1000 nM.

The compound `COc1ccc(Nc2nc(=O)n(Cc3ccc[nH]c3=O)c(=O)n2C2CCCc3cc(F)c(F)cc32)cc1` (racemic) [Compound I-0257] had an IC50 of 2900 nM.

Take `COc1ccc(Nc2nc(=O)n(Cc3ccc[nH]c3=O)c(=O)n2C2CCc3cc(F)c(F)cc32)cc1` (racemic) [Compound I-0258]: the IC50 was 3500 nM and 1000 to 10000 nM.

`Cc1c[nH]nc1[C@@H]1C[C@H]1Nc1nc(=O)n(Cc2ccc[nH]c2=O)c(=O)n1Cc1cc(F)c(F)c(F)c1` (racemic) [II-0373]: inhibition was half-maximal at 430 nM (IC50). This lies in the sub-micromolar range.

Turning to `O=c1[nH]cccc1Cn1c(=O)nc(Nc2ccc(F)cc2Cl)n(Cc2cc(F)c(F)c(F)c2)c1=O` [Compound I-0001], the IC50 lay in the range of 100 to 1000 nM.

As to `Cc1nc2cc(Cl)c(Nc3nc(=O)n(Cc4ccc[nH]c4=O)c(=O)n3Cc3cc(F)cc(Cl)c3)cc2n1C` [Compound I-0005], the IC50 was less than 100 nM.

The compound `Cc1nc2cc(Cl)c(Nc3nc(=O)n(Cc4ccc[nH]c4=O)c(=O)n3Cc3cc(F)c(F)cc3F)cc2n1C` [Compound I-0006] registered an IC50 of less than 100 nM.

In turn, `Cc1nc2cc(Cl)c(Nc3nc(=O)n(Cc4ccc[nH]c4=O)c(=O)n3Cc3cc(F)c(F)c(C#N)c3)cc2n1C` [Compound I-0010] yielded an IC50 of less than 100 nM.

The compound `O=c1[nH]cccc1Cn1c(=O)nc(Nc2ccc(O)cc2)n(Cc2cc(F)c(F)c(F)c2)c1=O` [Compound I-0027] registered an IC50 of less than 100 nM.

`Cc1cc(Oc2ccc(Nc3nc(=O)n(Cc4ccc[nH]c4=O)c(=O)n3Cc3cc(F)c(F)c(F)c3)cc2)no1` [Compound I-0048]: the IC50 was 440 nM and 100 to 1000 nM.

`COc1ccc(Nc2nc(=O)n(Cc3ccc[nH]c3=O)c(=O)n2Cc2cc(F)c(F)c(F)c2)c(O)c1` [Compound I-0056]: the IC50 is less than 100 nM.

Compound `CN(C)C(=O)c1ccc(Cn2c(=O)nc(Nc3cc4cn(C)nc4cc3Cl)n(Cc3cc(F)c(F)c(F)c3)c2=O)c(=O)[nH]1` [Compound I-0063] showed an IC50 of less than 100 nM.

As for `COc1ccc(Nc2nc(=O)n(Cc3ccc(C(=O)N(C)C)[nH]c3=O)c(=O)n2Cc2cc(F)c(F)c(F)c2)cc1` [Compound I-0072], the IC50 was less than 100 nM.

`COc1ccc(Nc2nc(=O)n(Cc3ccc(C(=O)NCCN(C)C)[nH]c3=O)c(=O)n2Cc2cc(F)c(F)c(F)c2)cc1` [Compound I-0074]: the IC50 is less than 100 nM.

On to `Cc1nc2cc(Cl)c(Nc3nc(=O)n(Cc4cc(Cl)c[nH]c4=O)c(=O)n3Cc3cc(F)c(F)c(F)c3)cc2n1C` [Compound I-0078], for which the IC50 is less than 100 nM.

`COc1ccc(Nc2nc(=O)n(Cc3cc4ccncc4[nH]c3=O)c(=O)n2Cc2cc(F)c(F)c(F)c2)cc1` [Compound I-0080] displayed an IC50 of less than 100 nM.

As to `COc1ccc(Nc2nc(=O)n(Cc3c[nH]ccc3=O)c(=O)n2Cc2cc(F)c(F)c(F)c2)cc1` [Compound I-0083], the IC50 is 1800 nM and 1000 to 10000 nM.

In the case of `CNC(=O)c1c[nH]c(=O)c(Cn2c(=O)nc(Nc3ccc(OC)cc3)n(Cc3cc(F)c(F)c(F)c3)c2=O)c1` [Compound I-0087], the IC50 is less than 100 nM.

`COc1ccc(Nc2nc(=O)n(Cc3cc(C(N)=O)c[nH]c3=O)c(=O)n2Cc2cc(F)c(F)c(F)c2)cc1` [Compound I-0088]: the IC50 is less than 100 nM.

As for `COc1ccc(Nc2nc(=O)n(Cc3cc(C(=O)O)c[nH]c3=O)c(=O)n2Cc2cc(F)c(F)c(F)c2)cc1` [Compound I-0089], the IC50 was less than 100 nM.

As to `COc1ccc(Nc2nc(=O)n(Cc3cc(C(=O)NCCN(C)C)c[nH]c3=O)c(=O)n2Cc2cc(F)c(F)c(F)c2)cc1` [Compound I-0092], the IC50 is less than 100 nM.

`COCCOc1ccc(Nc2nc(=O)n(Cc3ccc[nH]c3=O)c(=O)n2Cc2cc(F)c(F)c(F)c2)c(Cl)c1` [Compound I-0096] showed an IC50 of less than 100 nM.

Compound `Cn1cnc2cc(Cl)c(Nc3nc(=O)n(Cc4ccc[nH]c4=O)c(=O)n3Cc3cc(F)c(F)c(F)c3)cc2c1=O` [Compound I-0097] returned an IC50 of less than 100 nM.

Regarding `O=c1[nH]cccc1Cn1c(=O)nc(Nc2cc3nccnc3cc2Cl)n(Cc2cc(F)c(F)c(F)c2)c1=O` [Compound I-0098], the IC50 was less than 100 nM.

The compound `COc1ccc(Nc2nc(=O)n(Cc3c[nH]c(=O)[nH]c3=O)c(=O)n2Cc2cc(F)c(F)c(F)c2)cc1` [Compound I-0099] came in with an IC50 of less than 100 nM.

Take `COc1ccc(Nc2nc(=O)n(Cc3cc(=O)[nH][nH]c3=O)c(=O)n2Cc2cc(F)c(F)c(F)c2)cc1` [Compound I-0102]: the IC50 is 850 nM and 100 to 1000 nM.

`COc1ccc(Nc2nc(=O)n(Cc3c[nH]c(=S)[nH]c3=O)c(=O)n2Cc2cc(F)c(F)c(F)c2)cc1` [Compound I-0103] gave an IC50 of less than 100 nM.

In the case of `COc1ccc(Nc2nc(=O)n(Cc3cc(-c4cn(C)cn4)c[nH]c3=O)c(=O)n2Cc2cc(F)c(F)c(F)c2)cc1` [Compound I-0105], the IC50 is less than 100 nM.

Turning to `COc1ccc(Nc2nc(=O)n(Cc3nc(Br)c[nH]c3=O)c(=O)n2Cc2cc(F)c(F)c(F)c2)cc1` [Compound I-0106], the IC50 was 1900 nM and 1000 to 10000 nM.

In the case of `Cn1cc2cc(Nc3nc(=O)n(Cc4ccc[nH]c4=O)c(=O)n3Cc3cc(F)c(F)c(F)c3)ccc2n1` [Compound I-0143], the IC50 is less than 100 nM.

As for `Cn1cnc2ccc(Nc3nc(=O)n(Cc4ccc[nH]c4=O)c(=O)n3Cc3cc(F)c(F)c(F)c3)cc21` [Compound I-0144], the IC50 was less than 100 nM.

With `CNC(=O)c1ccc(Nc2nc(=O)n(Cc3ccc[nH]c3=O)c(=O)n2Cc2cc(F)c(F)c(F)c2)cc1` [Compound I-0149], the IC50 is 3500 nM and 1000 to 10000 nM.

For `CS(=O)(=O)Nc1ccc(Nc2nc(=O)n(Cc3ccc[nH]c3=O)c(=O)n2Cc2cc(F)c(F)c(F)c2)cc1` [Compound I-0151], the IC50 was 970 nM and 100 to 1000 nM.

Turning to `O=c1[nH]cccc1Cn1c(=O)nc(Nc2ccc(-c3cc[nH]n3)cc2)n(Cc2cc(F)c(F)c(F)c2)c1=O` [Compound I-0154], the IC50 was 1300 nM and 1000 to 10000 nM.

As for `O=c1[nH]cccc1Cn1c(=O)nc(NC2CCCC2)n(Cc2cc(F)c(F)c(F)c2)c1=O` [Compound I-0204], the IC50 is 610 nM and 100 to 1000 nM.

For the compound `CO[C@H]1C[C@H](Nc2nc(=O)n(Cc3ccc[nH]c3=O)c(=O)n2Cc2cc(F)c(F)c(F)c2)C1` [Compound I-0207], the IC50 is 1900 nM and 1000 to 10000 nM.

For the compound `COc1ccc(Nc2nc(=O)n(Cc3ccc[nH]c3=O)c(=O)n2Cc2nc3ccccc3s2)cc1` [Compound I-0223], the IC50 was 4300 nM and 1000 to 10000 nM.

Turning to `COc1ccc(Nc2nc(=O)n(Cc3ccc[nH]c3=O)c(=O)n2Cc2cc(F)cc(C#N)c2)cc1` [Compound I-0234], the IC50 is less than 100 nM.

Consider `Cn1cc(Nc2nc(=O)n(Cc3ccc[nH]c3=O)c(=O)n2Cc2cc(F)c(F)c(F)c2)c(Cl)cc1=O` [Compound I-0244], for which the IC50 was less than 100 nM.

`O=c1cc(Cl)c(Nc2nc(=O)n(Cc3ccc[nH]c3=O)c(=O)n2Cc2cc(F)c(F)c(F)c2)c[nH]1` [Compound I-0246] registered an IC50 of less than 100 nM.

`COc1ccc(Nc2nc(=O)n(Cc3cc(-c4cnn(C)c4)c[nH]c3=O)c(=O)n2Cc2cc(F)c(F)c(F)c2)cc1` [Compound I-0259] displayed an IC50 of less than 100 nM.

`Cc1nc2cc(Cl)c(Nc3nc(=O)n(Cc4ccc[nH]c4=O)c(=O)n3Cc3cc(F)c(F)c(F)c3F)cc2n1C` [Compound I-0265]: the IC50 is less than 100 nM.

The compound `Cc1nc2cc(Cl)c(Nc3nc(=O)n(Cc4ccc[nH]c4=O)c(=O)n3Cc3ccc(F)c(C#N)c3)cc2n1C` [Compound I-0266] yielded an IC50 of less than 100 nM.
